Test results: US10590086B2, “Pharmaceutical compound” (IOmet Pharma Ltd., priority 2014, dated 2020)
Where two headings read alike, the source gives them in different places.

Columns and labels:
IDO [1] = molecular target: T1, IDO (Homo sapiens, UniProt P14902); experiment: hIDO biochemical coupled assay; details: 45 μM L-tryptophan, read-out: hIDO biochemical assay pIC50 (converted)
TDO = TDO (Homo sapiens, UniProt P48775); experiment: A172 kynurenine cell-based assay; set-up: This assay utilised cancer cells which expressed either TDO or IDO; endogenous in cells; host or cells: A172 (human glioblastoma); details: A172 human glioblastoma cells, 48 hours, read-out: A172 Kynurenine cell based assay pIC50 (converted)
Chain of TDO (P48775 whole entry): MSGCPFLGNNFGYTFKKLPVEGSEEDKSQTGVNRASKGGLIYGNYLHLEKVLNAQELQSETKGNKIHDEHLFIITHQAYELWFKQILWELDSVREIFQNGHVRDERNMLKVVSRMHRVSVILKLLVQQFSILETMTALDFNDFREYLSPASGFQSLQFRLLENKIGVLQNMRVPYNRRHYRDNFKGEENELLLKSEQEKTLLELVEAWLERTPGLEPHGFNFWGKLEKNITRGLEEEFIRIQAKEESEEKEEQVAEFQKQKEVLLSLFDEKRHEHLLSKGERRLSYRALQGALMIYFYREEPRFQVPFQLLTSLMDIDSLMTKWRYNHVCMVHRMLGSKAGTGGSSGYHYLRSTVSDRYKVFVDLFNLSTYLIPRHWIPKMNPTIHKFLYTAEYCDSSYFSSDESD
Protocol: (§1) Exemplary compounds of the invention were prepared, and tested to determine their effect as TDO and/or IDO inhibitors. Two different assays were employed: 1. a cell-based assay for detecting the effect of test compounds on kynurenine production in two different cancer cell types. This assay utilised cancer cells which expressed either TDO or IDO and as such was used as a means of testing compound activity at these two enzymes in a cell-based context. 2. a TDO and IDO biochemical coupled assay which utilised recombinantly produced and purified TDO and IDO enzymes in combination with the enzyme formamidase. This coupled enzyme system allowed conversion of N-formylkynurenine produced by TDO or IDO activity to kynurenine which was then quantified by fluorescence following addition of Erhlich's Reagent The protocols for these are set out below.
(§2) Cell Based Assay for Detection of Kynurenine Produced by TDO and/or IDO
(§3) A172 (human glioblastoma) and SKOV3 (human ovarian adenocarcinoma) cells were seeded in a 96 well plate at 30,000 or 40,000 cells per well respectively in phenol red-free RPMI supplemented with 10% FCS, 2 mM L-glutamine and 500 μM L-tryptophan. IDO expression was induced in the SKOV3 cells by the addition of 500 ng/ml IFN-γ. Cells were incubated at 37° C. with or without the addition of test compound. After 48 hours, the cells were removed by centrifugation and Erhlich's reagent was added to the supernatant. The Erhlich's reagent was incubated for 5 minutes before the absorbance was read at 490 nm.

IDO [2] = molecular target: T1, IDO; experiment: SKOV3 kynurenine cell-based assay (IDO induced by IFN-γ); set-up: IDO expression was induced in the SKOV3 cells by the addition of 500 ng/ml IFN-γ; endogenous in cells; host or cells: SKOV3 (human ovarian adenocarcinoma), induced with IFN-γ; details: 48 hours, read-out: SKOV3 Kynurenine cell based assay pIC50 (converted)
Protocol: as §1, §2, §3

[3] = SKOV3 human ovarian adenocarcinoma cells, 500 ng/ml IFN-γ, 500 μM L-tryptophan

T1 sequence (P14902 whole entry): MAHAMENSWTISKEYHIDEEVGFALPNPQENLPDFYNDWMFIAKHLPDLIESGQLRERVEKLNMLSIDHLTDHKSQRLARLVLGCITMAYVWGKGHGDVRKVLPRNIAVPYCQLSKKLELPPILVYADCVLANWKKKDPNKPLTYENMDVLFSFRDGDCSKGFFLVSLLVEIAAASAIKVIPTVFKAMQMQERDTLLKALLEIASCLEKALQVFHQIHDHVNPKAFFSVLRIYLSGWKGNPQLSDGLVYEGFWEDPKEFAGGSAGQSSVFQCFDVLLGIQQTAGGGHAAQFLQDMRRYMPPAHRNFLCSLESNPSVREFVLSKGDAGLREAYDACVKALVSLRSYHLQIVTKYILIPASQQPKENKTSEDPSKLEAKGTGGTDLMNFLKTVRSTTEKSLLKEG

| SMILES | IC50 (IDO [1]; 17 minutes, room temperature) [µM] | IC50 (TDO; 500 μM L-tryptophan) [µM] | IC50 (IDO [2]; [3]) [µM] | IC50 (IDO [1]) [µM] | IC50 (TDO) [µM] | IC50 (IDO [2]; SKOV3 cells, IDO induced by 500 ng/ml IFN-γ) [µM] |
| --- | --- | --- | --- | --- | --- | --- |
| O=C(O)c1ccc(-c2cc(Cl)cc3[nH]ncc23)cc1 [Compound 253] | > 100 | < 3.16 | > 100 |  |  |  |
| COc1cc(-c2cc(Cl)cc3[nH]ncc23)ccc1S(C)(=O)=O [Compound 296] | > 100 | 3.24 to 31.6 | 3.24 to 31.6 |  |  |  |
| OC(c1cc(Cl)cc2[nH]ncc12)C1CCCCC1 (stereo not drawn) [Compound 293] | > 100 | < 3.16 | 32.4 to 100 |  |  |  |
| CC(C)c1cc(C2CCN(S(C)(=O)=O)CC2)c2cn[nH]c2c1 [Compound 223] | 3.24 to 31.6 | 3.24 to 31.6 | 32.4 to 100 |  |  |  |
| CS(=O)(=O)N1CCN(c2cc(Cl)cc3[nH]ncc23)CC12CCC2 [Compound 181] |  | < 3.16 | < 3.16 |  |  |  |
| O=C1NCCC12CCN(c1cc(Cl)cc3[nH]ncc13)CC2 [Compound 189] |  | 3.24 to 31.6 | 3.24 to 31.6 |  |  |  |
| CS(=O)(=O)N1CCN(c2ccc3[nH]ncc3c2)CC1 [Compound 43] |  | 3.24 to 31.6 | 32.4 to 100 |  |  |  |
| OCCOc1cc(Cl)cc2[nH]ncc12 [Compound 85] |  | 3.24 to 31.6 | 32.4 to 100 |  |  |  |
| CC(C)(F)C(=O)N1CCN(c2cc(Cl)cc3[nH]ncc23)CC1 [Compound 118] |  | < 3.16 | 3.24 to 31.6 |  |  |  |
| CC(C)c1cc(N2CCN(S(C)(=O)=O)CC2)c2cn[nH]c2c1 [Compound 67] |  | 3.24 to 31.6 | 32.4 to 100 |  |  |  |
| CC(O)c1cc(Cl)cc2[nH]ncc12 (stereo not drawn) [Compound 153] |  | < 3.16 | 32.4 to 100 |  |  |  |
| CS(=O)(=O)N1CCN(c2cc(C(F)(F)F)cc3[nH]ncc23)CC1 [Compound 49] |  | < 3.16 | 3.24 to 31.6 |  |  |  |
| CS(=O)(=O)N1CCC(F)(c2cc(Cl)cc3[nH]ncc23)CC1 [Compound 124] |  | < 3.16 | 3.24 to 31.6 |  |  |  |
| CS(=O)(=O)NCC1CCN(c2cc(Cl)cc3[nH]ncc23)CC1 [Compound 98] |  | < 3.16 | 3.24 to 31.6 |  |  |  |
| CN1CCN(c2cc(Cl)cc3[nH]ncc23)CC1(C)C [Compound 164] |  | < 3.16 | 32.4 to 100 |  |  |  |
| CNCCNc1cc(Cl)cc2[nH]ncc12 [Compound 156] |  | 3.24 to 31.6 | 32.4 to 100 |  |  |  |
| CS(=O)(=O)N1CCC(c2cc(-c3ccccc3)cc3[nH]ncc23)CC1 [Compound 32] |  | 3.24 to 31.6 | 32.4 to 100 |  |  |  |
| Cc1n[nH]c2cc(Cl)cc(N3CCN(S(C)(=O)=O)CC3)c12 [Compound 66] |  | 3.24 to 31.6 | 3.24 to 31.6 |  |  |  |
| CN1C(=O)NC2(CCN(c3cc(Cl)cc4[nH]ncc34)CC2)C1=O [Compound 144] |  | < 3.16 | < 3.16 |  |  |  |
| CC(=O)N1CCC(Oc2cccc3[nH]ncc23)CC1 [Compound 53] |  | 3.24 to 31.6 | < 3.16 |  |  |  |
| CN(C)C(=O)N1CCN(c2cc(Cl)cc3[nH]ncc23)CC1 [Compound 82] |  | < 3.16 | 3.24 to 31.6 |  |  |  |
| CC1(C)CN(c2cc(C3CC3)cc3[nH]ncc23)CCN1S(C)(=O)=O [Compound 127] |  | < 3.16 | 3.24 to 31.6 |  |  |  |
| CC(C)C(=O)N1CCC(c2cc(Cl)cc3[nH]ncc23)CC1 [Compound 166] |  | < 3.16 | 32.4 to 100 |  |  |  |

The next lines start with the values.

| IC50 (IDO [1]; 17 minutes, room temperature) [µM] | IC50 (TDO; 500 μM L-tryptophan) [µM] | IC50 (IDO [2]; [3]) [µM] | IC50 (IDO [1]) [µM] | IC50 (TDO) [µM] | IC50 (IDO [2]; SKOV3 cells, IDO induced by 500 ng/ml IFN-γ) [µM] | SMILES |
| --- | --- | --- | --- | --- | --- | --- |
| 32.4 to 100 | < 3.16 | 3.24 to 31.6 |  |  |  | Cc1cc(-c2cc(Cl)cc3[nH]ncc23)ccc1S(C)(=O)=O [Compound 254] |
|  | < 3.16 | 3.24 to 31.6 | 191 | 0.24 | 12.3 | CC(=O)NC1CCC(c2cc(Cl)cc3[nH]ncc23)CC1 (mixture of isomers) [Compound 155, N-(4-(6-chloro-1H-indazol-4-yl)cyclohexyl) acetamide] |
| 3.24 to 31.6 | < 3.16 | 32.4 to 100 |  |  |  | COC(=O)C1CCN(c2cc(Cl)cc3[nH]ncc23)CC1 [Compound 234] |
| > 100 | > 100 | 3.24 to 31.6 |  |  |  | O=C(NCC1CCCCC1)c1cc(Cl)cc2[nH]ncc12 [Compound 258] |
| 3.24 to 31.6 | 3.24 to 31.6 | 3.24 to 31.6 |  |  |  | CN(C)C(=O)C1CCN(c2cc(Cl)cc3[nH]ncc23)C1 (stereo not drawn) [Compound 263] |
| > 100 | 32.4 to 100 | > 100 |  |  |  | CCNC(=O)c1cc(Cl)cc2[nH]ncc12 [Compound 261] |
| > 100 | 32.4 to 100 | 32.4 to 100 |  |  |  | CC(C)NC(=O)c1cc(Cl)cc2[nH]ncc12 [Compound 236] |
| > 100 | 32.4 to 100 | 32.4 to 100 |  |  |  | O=C(NCc1ccccc1)c1cc(Cl)cc2[nH]ncc12 [Compound 237] |
| > 100 | < 3.16 | 3.24 to 31.6 |  |  |  | CC(=O)NCc1ccc(-c2cc(Cl)cc3[nH]ncc23)cc1 [Compound 276] |
| 3.24 to 31.6 | < 3.16 | 3.24 to 31.6 |  |  |  | CC(=O)N(C)c1ccc(-c2cc(Cl)cc3[nH]ncc23)cc1 [Compound 248] |
| > 100 | 32.4 to 100 | 32.4 to 100 |  |  |  | CC(=O)N1CCC(c2cc(OC(F)(F)F)cc3[nH]ncc23)CC1 [Compound 275] |
| > 100 | 32.4 to 100 | 32.4 to 100 |  |  |  | CC(=O)N1CCN(c2cc(OC(F)(F)F)cc3[nH]ncc23)CC1 [Compound 244] |
| 32.4 to 100 | < 3.16 | 3.24 to 31.6 |  |  |  | CN(C1CCN(c2cc(Cl)cc3[nH]ncc23)C1)S(C)(=O)=O (stereo not drawn) [Compound 243] |
|  | < 3.16 | < 3.16 |  |  |  | CC(=O)N1CCN(c2cc(C(F)(F)F)cc3[nH]ncc23)CC1(C)C [Compound 79] |
|  | 3.24 to 31.6 | 32.4 to 100 |  |  |  | CC1(C)CN(c2cc(C3CCCC3)cc3[nH]ncc23)CCN1S(C)(=O)=O [Compound 148] |
|  | 3.24 to 31.6 | > 100 |  |  |  | CS(=O)(=O)N1CCN(c2cc(C3CC3)cc3[nH]ncc23)CC1 [Compound 101] |
|  | > 100 | 3.24 to 31.6 |  |  |  | CS(=O)(=O)N1CCN(c2cc(Cl)cc3[nH]ncc23)c2ccccc21 [Compound 151] |
|  | < 3.16 | 32.4 to 100 |  |  |  | OC1CCCN(c2cc(Cl)cc3[nH]ncc23)C1 (stereo not drawn) [Compound 125] |
|  | < 3.16 | 3.24 to 31.6 |  |  |  | CC(=O)N1CCN(c2cc(Cl)cc3[nH]ncc23)CC12CCC2 [Compound 182] |
|  | < 3.16 | 3.24 to 31.6 |  |  |  | CC(=O)N1CCCN(c2cc(Cl)cc3[nH]ncc23)CC1 [Compound 71] |
|  | < 3.16 | 3.24 to 31.6 |  |  |  | CC(=O)N1CC=C(c2cc(Br)cc3[nH]ncc23)CC1 [Compound 128] |
|  | < 3.16 | 3.24 to 31.6 |  |  |  | CCC1CN(c2cc(Cl)cc3[nH]ncc23)CCN1S(C)(=O)=O (stereo not drawn) [Compound 83] |
|  | < 3.16 | 3.24 to 31.6 |  |  |  | COCC(=O)N1CCN(c2cc(Cl)cc3[nH]ncc23)CC1 [Compound 112] |
|  | < 3.16 | 3.24 to 31.6 |  |  |  | CC(=O)N1CCN(c2cc(Cl)cc3[nH]ncc23)CC1C (stereo not drawn) [Compound 74] |
|  | < 3.16 | > 100 |  |  |  | CC(C)(O)C(=O)N1CCC(c2cc(Cl)cc3[nH]ncc23)CC1 [Compound 191] |
|  | < 3.16 | 3.24 to 31.6 |  |  |  | O=C(C1CC1)N1CCN(c2cc(Cl)cc3[nH]ncc23)CC1 [Compound 107] |
|  | > 100 | 32.4 to 100 |  |  |  | CS(=O)(=O)N1CCN(c2cc(-c3ncco3)cc3[nH]ncc23)CC1 [Compound 157] |
|  | < 3.16 | 3.24 to 31.6 |  |  |  | CC(=O)N1CCC(c2cc(C(F)(F)F)cc3[nH]ncc23)CC1 [Compound 99] |
|  | 32.4 to 100 | > 100 |  |  |  | CS(=O)(=O)N1CCN(c2cc(N3CCCC3)cc3[nH]ncc23)CC1 [Compound 146] |
